Measured values taken from EP2931723B1, “NEW BICYCLIC COMPOUNDS AND THEIR USE AS ANTIBACTERIAL AGENTS AND -LACTAMASE INHIBITORS” (Fedora Pharmaceuticals Inc., priority 2012, dated 2014).

Key:
Experiment in all cases: MIC, antibacterial and synergistic activity
Format in all cases: cell-based
K. pneumo JMI 2693 = K. pneumo JMI 2693 (NDM-1 (Cpase))
Description: (§1) In the Tables 10 - 12, compounds herein disclosed were tested in combination with various antibiotics against metallo β-lactamase producing bacteria.

E. coli JMI 2692 = E. coli JMI 2692 (NDM-1, TEM-1, CTX-M-15)
Description: as §1

E. coli ATCC 25922 = E. coli ATCC 25922 (Wt)
E. coli JMI 2665 = tested on: E. coli JMI 2665
Description: (§2) In the Tables 10 - 12, compounds herein disclosed were tested in combination with various antibiotics against metallo β-lactamase producing bacteria. Table 3: Synergy of the inhibitor Ex. 1 (4 µg/mL) in combination with antibiotics

E. coli JMI 10768 = E. coli JMI 10768 (CTX-M15 (Weak ESBL))
Description: as §2

P. aerug JMI 2686 = P. aerug JMI 2686 (KPC-2 (Cpase))
Description: as §2

K. pneumo JMI 2699 = K. pneumo JMI 2699 (VIM-1, CTX-M3)
Description: as §2

E. coli JMI 2671 = tested on: E. coli JMI 2671
Description: as §2

K.pneumo JMI 4109 [1] = settings: K.pneumo JMI 4109 (SHV-1, SHV-12)
Description: as §2

K. pneumo JMI 4088 = K. pneumo JMI 4088 (KPC-3 (Cpase))
Description: as §2

E. coli JMI 10770 [2] = settings: E. coli JMI 10770 (CTX-M15 (Hyper ESBL))
Description: as §2

K. pneumo JMI 2674 [3] = settings: K. pneumo JMI 2674 (CTX-M15 (ESBL))
Description: as §2

K. pneumo JMI 2673 [4] = settings: K. pneumo JMI 2673 (CTX-M14 (ESBL))
Description: as §2

E. coli JMI 10767 [5] = settings: E. coli JMI 10767 (Wt)
Description: as §2

K.pneumo JMI 4109 [6] = settings: K.pneumo JMI 4109 (SHV-1, SHV-12); substance alone
E.coli JMI 4103 = E.coli JMI 4103 (KPC-2, Tem-1, CMY-Type)
K. pneumo JMI 2673 [7] = settings: K. pneumo JMI 2673 (CTX-M14 (ESBL)); substance alone
K. pneumo JMI 2681 = K. pneumo JMI 2681 (Oxa-48 (Cpase))
K. pneumo JMI 2674 [8] = settings: K. pneumo JMI 2674 (CTX-M15 (ESBL)); substance alone
E. coli JMI 10770 [9] = settings: Escherichia coli, JMI10770; E. coli JMI 10770 (CTX-M15 (Hyper ESBL)); substance alone
E. coli JMI 10767 [10] = settings: E. coli JMI 10767 (Wt); remark: listed apart in the source
E. cloacae JMI 36 = E. cloacae JMI 36 (P99)
[11] = Aztreonam + inhibitor at 4 µg/mL
[12] = Ceftazidime + inhibitor at 4 µg/mL
[13] = Meropenem + inhibitor at 4 µg/mL

## CC(=O)NNC(=O)[C@@H]1CC[C@@H]2CN1C(=O)N2OS(=O)(=O)O [Ex. 5, (2S,5R)-N'-acetyl-7-oxo-6-(sulfooxy)-1,6-diazabicyclo[3.2.1]octane-2-carbohydrazide]
K. pneumo JMI 2693; [11]
  MIC Aztreonam + inhibitor: 0.5 µg/mL
K. pneumo JMI 2693; [12]
  MIC Ceftazidime + inhibitor: 0.5 µg/mL
K. pneumo JMI 2693; [13]
  MIC Meropenem + inhibitor: 0.125 µg/mL
K. pneumo JMI 2693; substance alone
  MIC: > 16 µg/mL
E. coli JMI 2692; [11]
  MIC Aztreonam + inhibitor: ≤0.062 µg/mL
E. coli JMI 2692; [12]
  MIC Ceftazidime + inhibitor: ≤0.25 µg/mL
E. coli JMI 2692; [13]
  MIC Meropenem + inhibitor: ≤0.031 µg/mL
E. coli JMI 2692; Escherichia coli, JMI2692, substance alone, read-out: MIC
  MIC: 2 µg/mL
E. coli ATCC 25922; [11]
  MIC Aztreonam + inhibitor: ≤0.062 µg/mL
E. coli ATCC 25922; [12]
  MIC Ceftazidime + inhibitor: ≤0.25 µg/mL
E. coli ATCC 25922; [13]
  MIC Meropenem + inhibitor: ≤0.031 µg/mL
E. coli ATCC 25922; Escherichia coli, ATCC25922, substance alone
  MIC: 2 µg/mL
E. coli JMI 2665; E. coli JMI 2665 (CMY-2 (Plasmid Cpase)), Aztreonam + inhibitor at 4 µg/mL
  MIC Aztreonam + inhibitor: ≤0.062 µg/mL
E. coli JMI 2665; E. coli JMI 2665 (CMY-2 (Plasmid Cpase)), Ceftazidime + inhibitor at 4 µg/mL
  MIC Ceftazidime + inhibitor: ≤0.25 µg/mL
E. coli JMI 2665; E. coli JMI 2665 (CMY-2 (Plasmid Cpase)), Meropenem + inhibitor at 4 µg/mL
  MIC Meropenem + inhibitor: ≤0.031 µg/mL
E. coli JMI 2665; Escherichia coli, JMI2665
  MIC: 2 µg/mL
E. coli JMI 10768; [11]
  MIC Aztreonam + inhibitor: ≤0.062 µg/mL
E. coli JMI 10768; [12]
  MIC Ceftazidime + inhibitor: ≤0.25 µg/mL
E. coli JMI 10768; Escherichia coli, JMI10768, substance alone
  MIC: 8 µg/mL
P. aerug JMI 2686; [11]
  MIC Aztreonam + inhibitor: >4 µg/mL
P. aerug JMI 2686; [12]
  MIC Ceftazidime + inhibitor: >16 µg/mL
P. aerug JMI 2686; [13]
  MIC Meropenem + inhibitor: >2 µg/mL
K. pneumo JMI 2699; [11]
  MIC Aztreonam + inhibitor: ≤0.062 µg/mL
K. pneumo JMI 2699; [12]
  MIC Ceftazidime + inhibitor: 2 µg/mL
K. pneumo JMI 2699; [13]
  MIC Meropenem + inhibitor: ≤0.031 µg/mL
K. pneumo JMI 2699; substance alone, read-out: MIC
  MIC: > 16 µg/mL
E. coli JMI 2671; E. coli JMI 2671 (VIM-19 (Cpase)), Aztreonam + inhibitor at 4 µg/mL
  MIC Aztreonam + inhibitor: ≤0.062 µg/mL
E. coli JMI 2671; E. coli JMI 2671 (VIM-19 (Cpase)), Ceftazidime + inhibitor at 4 µg/mL
  MIC Ceftazidime + inhibitor: 2 µg/mL
E. coli JMI 2671; E. coli JMI 2671 (VIM-19 (Cpase)), Meropenem + inhibitor at 4 µg/mL
  MIC Meropenem + inhibitor: 0.25 µg/mL
E. coli JMI 2671; Escherichia coli, JMI2671, E. coli JMI 2671 (VIM-19 (Cpase)), substance alone
  MIC: 16 µg/mL
K.pneumo JMI 4109 [1]; [11]
  MIC Aztreonam + inhibitor: ≤0.062 µg/mL
K.pneumo JMI 4109 [1]; [12]
  MIC Ceftazidime + inhibitor: ≤0.25 µg/mL
K.pneumo JMI 4109 [1]; [13]
  MIC Meropenem + inhibitor: ≤0.031 µg/mL
K. pneumo JMI 4088; [11]
  MIC Aztreonam + inhibitor: 0.25 µg/mL
K. pneumo JMI 4088; [12]
  MIC Ceftazidime + inhibitor: ≤0.25 µg/mL
K. pneumo JMI 4088; [13]
  MIC Meropenem + inhibitor: 0.125 µg/mL
E. coli JMI 10770 [2]; [11]
  MIC Aztreonam + inhibitor: ≤0.062 µg/mL
E. coli JMI 10770 [2]; [12]
  MIC Ceftazidime + inhibitor: ≤0.25 µg/mL
E. coli JMI 10770 [2]; [13]
  MIC Meropenem + inhibitor: ≤0.031 µg/mL
K. pneumo JMI 2674 [3]; [11]
  MIC Aztreonam + inhibitor: 0.125 µg/mL
K. pneumo JMI 2674 [3]; [12]
  MIC Ceftazidime + inhibitor: ≤0.25 µg/mL
K. pneumo JMI 2674 [3]; [13]
  MIC Meropenem + inhibitor: 0.062 µg/mL
K. pneumo JMI 2673 [4]; [11]
  MIC Aztreonam + inhibitor: ≤0.062 µg/mL
K. pneumo JMI 2673 [4]; [12]
  MIC Ceftazidime + inhibitor: ≤0.25 µg/mL
K. pneumo JMI 2673 [4]; [13]
  MIC Meropenem + inhibitor: ≤0.031 µg/mL
E. coli JMI 10767 [5]; [11]
  MIC Aztreonam + inhibitor: ≤0.062 µg/mL
E. coli JMI 10767 [5]; [12]
  MIC Ceftazidime + inhibitor: ≤0.25 µg/mL
K.pneumo JMI 4109 [6]
  MIC: > 16 µg/mL
E.coli JMI 4103; [11]
  MIC Aztreonam + inhibitor: ≤0.062 µg/mL
E.coli JMI 4103; [12]
  MIC Ceftazidime + inhibitor: ≤0.25 µg/mL
E.coli JMI 4103; [13]
  MIC Meropenem + inhibitor: ≤0.031 µg/mL
E.coli JMI 4103; Escherichia coli, JMI4103, substance alone
  MIC: 8 µg/mL
K. pneumo JMI 2673 [7]
  MIC: > 16 µg/mL
K. pneumo JMI 2681; [11]
  MIC Aztreonam + inhibitor: 0.5 µg/mL
K. pneumo JMI 2681; [12]
  MIC Ceftazidime + inhibitor: ≤0.25 µg/mL
K. pneumo JMI 2681; [13]
  MIC Meropenem + inhibitor: 2 µg/mL
K. pneumo JMI 2681; substance alone, read-out: MIC
  MIC: 16 µg/mL
K. pneumo JMI 2674 [8]
  MIC: > 16 µg/mL
E. coli JMI 10770 [9]
  MIC: 8 µg/mL
E. coli JMI 10767 [10]; [13]
  MIC Meropenem + inhibitor: ≤0.031 µg/mL
E. coli JMI 10767 [10]; Escherichia coli, JMI10767, substance alone
  MIC: 8 µg/mL
E. cloacae JMI 36; [11]
  MIC Aztreonam + inhibitor: >4 µg/mL
E. cloacae JMI 36; [12]
  MIC Ceftazidime + inhibitor: 16 µg/mL
E. cloacae JMI 36; [13]
  MIC Meropenem + inhibitor: 0.125 µg/mL
E. cloacae JMI 36; Enterobacter cloacae, JMI36, substance alone, read-out: MIC
  MIC: > 16 µg/mL
